Experimental data taken from publication doi:10.1101/2023.03.24.534094v2 (biorxiv, 2023).
Read-outs that look alike come from different tables or passages of the source. Blank lines part the entries; values can stand above or below the compound they belong to.

Legend:
Test in all cases: biochemical
EphB1 = target: T1, EphB1 (Homo sapiens, UniProt P54762)
T1 sequence (P54762 1-984): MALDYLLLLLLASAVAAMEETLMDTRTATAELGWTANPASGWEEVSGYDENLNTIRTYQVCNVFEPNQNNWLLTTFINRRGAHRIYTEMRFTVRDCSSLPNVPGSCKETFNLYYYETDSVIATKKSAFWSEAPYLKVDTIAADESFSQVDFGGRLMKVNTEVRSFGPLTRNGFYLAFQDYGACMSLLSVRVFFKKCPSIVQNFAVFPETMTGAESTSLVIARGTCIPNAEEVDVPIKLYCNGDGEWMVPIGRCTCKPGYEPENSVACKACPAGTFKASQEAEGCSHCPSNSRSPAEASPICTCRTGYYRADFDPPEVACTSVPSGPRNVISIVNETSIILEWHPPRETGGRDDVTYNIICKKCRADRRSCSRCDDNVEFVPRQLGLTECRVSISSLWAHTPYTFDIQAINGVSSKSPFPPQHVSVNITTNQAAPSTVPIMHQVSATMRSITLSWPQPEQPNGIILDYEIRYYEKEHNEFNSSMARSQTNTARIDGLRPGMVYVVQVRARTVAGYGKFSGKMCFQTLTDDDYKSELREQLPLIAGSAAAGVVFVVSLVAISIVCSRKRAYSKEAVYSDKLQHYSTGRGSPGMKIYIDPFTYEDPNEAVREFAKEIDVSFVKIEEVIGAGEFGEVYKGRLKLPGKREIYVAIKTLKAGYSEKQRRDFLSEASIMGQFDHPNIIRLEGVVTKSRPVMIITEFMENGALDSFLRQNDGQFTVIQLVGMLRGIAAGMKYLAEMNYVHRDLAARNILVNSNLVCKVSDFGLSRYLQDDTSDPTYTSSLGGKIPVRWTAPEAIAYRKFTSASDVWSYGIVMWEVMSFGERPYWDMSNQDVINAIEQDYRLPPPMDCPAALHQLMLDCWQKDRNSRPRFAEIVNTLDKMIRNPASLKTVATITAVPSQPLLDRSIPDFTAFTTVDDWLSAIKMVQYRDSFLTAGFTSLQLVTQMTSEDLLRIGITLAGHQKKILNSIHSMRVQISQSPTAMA

BIKE = BIKE (Homo sapiens, UniProt Q9NSY1)
TTK = target: T2, TTK (Homo sapiens, UniProt P33981)
T2 sequence (P33981 1-857): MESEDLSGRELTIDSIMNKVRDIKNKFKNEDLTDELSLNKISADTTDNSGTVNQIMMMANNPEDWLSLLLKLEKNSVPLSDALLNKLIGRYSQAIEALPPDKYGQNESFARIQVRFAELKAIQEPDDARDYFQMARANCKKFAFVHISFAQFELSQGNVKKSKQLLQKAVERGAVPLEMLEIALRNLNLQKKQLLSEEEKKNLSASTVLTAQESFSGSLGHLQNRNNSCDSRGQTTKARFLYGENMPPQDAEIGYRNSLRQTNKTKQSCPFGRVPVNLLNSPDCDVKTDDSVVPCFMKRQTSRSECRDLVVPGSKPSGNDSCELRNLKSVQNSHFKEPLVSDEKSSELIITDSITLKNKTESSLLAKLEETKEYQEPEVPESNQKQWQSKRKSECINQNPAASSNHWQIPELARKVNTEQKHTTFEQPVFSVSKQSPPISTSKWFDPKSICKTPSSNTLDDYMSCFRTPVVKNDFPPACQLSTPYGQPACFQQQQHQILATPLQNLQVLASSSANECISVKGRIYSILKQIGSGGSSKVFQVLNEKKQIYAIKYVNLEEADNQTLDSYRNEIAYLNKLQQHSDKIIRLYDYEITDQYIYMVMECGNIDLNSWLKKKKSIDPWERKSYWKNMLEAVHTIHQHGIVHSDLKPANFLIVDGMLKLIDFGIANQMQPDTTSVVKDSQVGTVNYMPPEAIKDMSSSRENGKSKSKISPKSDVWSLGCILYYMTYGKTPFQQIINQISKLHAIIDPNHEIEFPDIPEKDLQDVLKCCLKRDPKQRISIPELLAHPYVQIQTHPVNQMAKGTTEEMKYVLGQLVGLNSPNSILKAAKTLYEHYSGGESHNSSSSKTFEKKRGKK

STLK3 = STLK3 (Homo sapiens, UniProt Q9UEW8)
AKT3 = AKT3 (Homo sapiens, UniProt Q9Y243)
ULK3 = target: T3, ULK3 (Homo sapiens, UniProt Q6PHR2)
T3 sequence (Q6PHR2 1-472): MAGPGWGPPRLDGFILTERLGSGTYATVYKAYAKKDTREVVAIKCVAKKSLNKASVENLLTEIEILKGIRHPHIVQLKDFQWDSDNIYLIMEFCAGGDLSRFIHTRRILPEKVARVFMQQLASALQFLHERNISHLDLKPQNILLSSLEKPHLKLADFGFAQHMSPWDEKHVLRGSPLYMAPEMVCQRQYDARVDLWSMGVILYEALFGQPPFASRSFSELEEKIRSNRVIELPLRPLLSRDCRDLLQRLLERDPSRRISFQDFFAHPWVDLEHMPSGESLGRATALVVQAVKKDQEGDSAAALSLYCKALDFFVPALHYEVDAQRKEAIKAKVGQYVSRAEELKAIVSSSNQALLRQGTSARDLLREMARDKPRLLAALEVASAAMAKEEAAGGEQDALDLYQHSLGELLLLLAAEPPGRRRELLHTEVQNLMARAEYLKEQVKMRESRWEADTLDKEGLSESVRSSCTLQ

CaMK2b = CaMK2b (Homo sapiens, UniProt Q13554)
MELK = MELK (Homo sapiens, UniProt Q14680)
MELK, sequence (Q14680 whole entry): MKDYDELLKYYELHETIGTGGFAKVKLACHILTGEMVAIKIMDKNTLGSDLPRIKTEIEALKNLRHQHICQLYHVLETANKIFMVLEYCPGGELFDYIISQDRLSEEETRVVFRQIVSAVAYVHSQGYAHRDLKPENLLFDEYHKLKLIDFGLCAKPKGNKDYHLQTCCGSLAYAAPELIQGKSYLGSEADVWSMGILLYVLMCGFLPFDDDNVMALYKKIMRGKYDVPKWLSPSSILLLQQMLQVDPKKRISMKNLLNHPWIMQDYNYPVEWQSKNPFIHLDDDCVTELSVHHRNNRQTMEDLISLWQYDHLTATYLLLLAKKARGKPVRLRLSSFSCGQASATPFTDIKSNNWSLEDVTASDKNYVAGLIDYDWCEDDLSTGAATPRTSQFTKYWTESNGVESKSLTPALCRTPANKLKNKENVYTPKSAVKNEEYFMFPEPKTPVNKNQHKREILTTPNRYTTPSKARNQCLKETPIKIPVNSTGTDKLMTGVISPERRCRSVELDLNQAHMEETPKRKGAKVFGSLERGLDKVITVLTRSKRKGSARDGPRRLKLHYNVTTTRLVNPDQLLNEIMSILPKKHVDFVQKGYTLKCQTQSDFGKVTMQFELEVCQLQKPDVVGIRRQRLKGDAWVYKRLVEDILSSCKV

AKT3, sequence (Q9Y243 whole entry): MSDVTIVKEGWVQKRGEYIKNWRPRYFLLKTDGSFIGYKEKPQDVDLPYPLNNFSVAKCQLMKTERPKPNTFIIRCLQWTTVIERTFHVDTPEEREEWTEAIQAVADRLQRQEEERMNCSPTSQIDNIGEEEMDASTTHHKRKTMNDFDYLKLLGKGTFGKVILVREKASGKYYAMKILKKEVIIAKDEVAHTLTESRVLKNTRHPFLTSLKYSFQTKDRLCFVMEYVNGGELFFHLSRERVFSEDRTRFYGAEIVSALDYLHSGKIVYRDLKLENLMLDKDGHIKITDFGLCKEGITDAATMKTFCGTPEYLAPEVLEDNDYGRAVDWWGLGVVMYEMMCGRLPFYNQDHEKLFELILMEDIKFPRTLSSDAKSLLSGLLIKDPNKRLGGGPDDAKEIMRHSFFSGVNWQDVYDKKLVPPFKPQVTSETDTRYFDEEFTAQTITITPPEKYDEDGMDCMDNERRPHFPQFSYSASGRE
CaMK2b, sequence (Q13554 whole entry): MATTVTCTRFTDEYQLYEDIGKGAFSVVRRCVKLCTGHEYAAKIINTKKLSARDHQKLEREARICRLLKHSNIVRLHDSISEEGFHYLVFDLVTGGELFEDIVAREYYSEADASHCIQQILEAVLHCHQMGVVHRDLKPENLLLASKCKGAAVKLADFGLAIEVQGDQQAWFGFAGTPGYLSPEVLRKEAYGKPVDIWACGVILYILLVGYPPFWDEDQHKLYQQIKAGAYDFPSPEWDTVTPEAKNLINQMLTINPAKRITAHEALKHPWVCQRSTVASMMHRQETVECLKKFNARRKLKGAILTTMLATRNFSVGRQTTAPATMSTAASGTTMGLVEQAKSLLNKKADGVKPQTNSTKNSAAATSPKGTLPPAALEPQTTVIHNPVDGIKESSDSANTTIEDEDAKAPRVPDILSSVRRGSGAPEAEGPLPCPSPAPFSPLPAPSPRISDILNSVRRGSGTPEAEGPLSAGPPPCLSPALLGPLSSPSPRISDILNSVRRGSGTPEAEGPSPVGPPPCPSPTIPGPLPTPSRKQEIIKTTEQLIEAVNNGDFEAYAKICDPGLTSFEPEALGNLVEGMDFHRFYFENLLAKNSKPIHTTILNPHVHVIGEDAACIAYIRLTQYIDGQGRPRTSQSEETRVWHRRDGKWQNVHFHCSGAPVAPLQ
BIKE, sequence (Q9NSY1 whole entry): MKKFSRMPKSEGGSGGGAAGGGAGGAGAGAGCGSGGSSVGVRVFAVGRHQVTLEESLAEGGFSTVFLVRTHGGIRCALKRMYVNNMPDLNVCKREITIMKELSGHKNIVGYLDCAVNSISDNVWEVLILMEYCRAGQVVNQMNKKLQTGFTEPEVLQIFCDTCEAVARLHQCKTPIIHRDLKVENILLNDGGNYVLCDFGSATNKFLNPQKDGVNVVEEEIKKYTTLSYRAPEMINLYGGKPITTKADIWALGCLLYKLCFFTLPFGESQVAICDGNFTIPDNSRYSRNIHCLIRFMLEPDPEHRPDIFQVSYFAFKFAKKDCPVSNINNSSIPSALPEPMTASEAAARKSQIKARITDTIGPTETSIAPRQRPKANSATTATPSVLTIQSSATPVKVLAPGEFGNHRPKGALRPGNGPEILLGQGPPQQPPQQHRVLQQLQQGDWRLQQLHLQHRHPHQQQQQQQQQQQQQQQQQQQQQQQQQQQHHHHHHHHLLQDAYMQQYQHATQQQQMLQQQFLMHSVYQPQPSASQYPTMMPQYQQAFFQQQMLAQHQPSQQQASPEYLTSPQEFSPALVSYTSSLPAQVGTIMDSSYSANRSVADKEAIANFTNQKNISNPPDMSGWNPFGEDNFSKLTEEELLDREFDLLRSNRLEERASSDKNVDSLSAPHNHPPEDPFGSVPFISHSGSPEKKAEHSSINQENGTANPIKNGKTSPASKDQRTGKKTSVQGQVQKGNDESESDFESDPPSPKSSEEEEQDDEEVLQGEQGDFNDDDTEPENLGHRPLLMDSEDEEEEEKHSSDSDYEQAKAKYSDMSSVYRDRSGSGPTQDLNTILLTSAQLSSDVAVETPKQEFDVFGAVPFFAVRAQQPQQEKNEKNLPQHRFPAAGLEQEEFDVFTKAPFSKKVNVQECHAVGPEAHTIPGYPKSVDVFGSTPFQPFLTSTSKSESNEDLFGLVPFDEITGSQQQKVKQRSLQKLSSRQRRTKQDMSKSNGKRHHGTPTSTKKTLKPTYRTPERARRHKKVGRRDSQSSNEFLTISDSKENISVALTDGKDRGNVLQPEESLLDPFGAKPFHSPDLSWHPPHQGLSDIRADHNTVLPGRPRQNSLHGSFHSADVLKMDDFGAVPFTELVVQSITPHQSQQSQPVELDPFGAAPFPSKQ

SMILES: CNc1ncc2cc(-c3cc(C(F)(F)F)ccc3Cl)c(=O)n(CCCCN)c2n1 [compound 9, 8-(4-Aminobutyl)-6-(2-chloro-5-(trifluoromethyl)phenyl)-2-(methylamino)pyrido[2,3-d]pyrimidin-7(8H)-one]
ΔTm at 10 µM (EphB1; read-out: dTm 9): 3.3 °C | ΔTm at 10 µM (BIKE; read-out: dTm 9): 0.6 °C | ΔTm at 10 µM (TTK; read-out: dTm 9): -0.5 °C | ΔTm at 10 µM (STLK3; read-out: dTm 9): 0.3 °C | ΔTm at 10 µM (AKT3; read-out: dTm 9): 0 °C | ΔTm at 10 µM (ULK3; read-out: dTm 9): 0.6 °C | ΔTm at 10 µM (CaMK2b; read-out: dTm 9): 0.1 °C | ΔTm at 10 µM (MELK; read-out: dTm 9): 1.6 °C

SMILES: CNc1ncc2cc(-c3cc(Cl)ccc3Cl)c(=O)n(CCCCN)c2n1 [compound 8, 8-(4-Aminobutyl)-6-(2,5-dichlorophenyl)-2-(methylamino)pyrido[2,3-d]pyrimidin-7(8H)-one]
ΔTm at 10 µM (EphB1; read-out: dTm 8): 5.3 °C | ΔTm at 10 µM (BIKE; read-out: dTm 8): 1.1 °C | ΔTm at 10 µM (TTK; read-out: dTm 8): 0.5 °C | ΔTm at 10 µM (STLK3; read-out: dTm 8): 0.2 °C | ΔTm at 10 µM (AKT3; read-out: dTm 8): 0 °C | ΔTm at 10 µM (ULK3; read-out: dTm 8): 1 °C | ΔTm at 10 µM (CaMK2b; read-out: dTm 8): 0.2 °C | ΔTm at 10 µM (MELK; read-out: dTm 8): 4.6 °C

SMILES: CNc1ncc2cc(-c3cc(Cl)ccc3Br)c(=O)n(CCCCN)c2n1 [compound 10, 8-(4-Aminobutyl)-6-(2-bromo-5-chlorophenyl)-2-(methylamino)pyrido[2,3-d]pyrimidin-7(8H)-one]
ΔTm at 10 µM (EphB1; read-out: dTm 10): 5.5 °C | ΔTm at 10 µM (BIKE; read-out: dTm 10): 1.1 °C | ΔTm at 10 µM (TTK; read-out: dTm 10): 0.5 °C | ΔTm at 10 µM (STLK3; read-out: dTm 10): 0.3 °C | ΔTm at 10 µM (AKT3; read-out: dTm 10): -0.1 °C | ΔTm at 10 µM (ULK3; read-out: dTm 10): 1.1 °C | ΔTm at 10 µM (CaMK2b; read-out: dTm 10): 0.3 °C | ΔTm at 10 µM (MELK; read-out: dTm 10): 4.3 °C

The next lines start with the values.

ΔTm at 10 µM (EphB1; read-out: dTm 11): 4.7 °C | ΔTm at 10 µM (BIKE; read-out: dTm 11): 1 °C | ΔTm at 10 µM (TTK; read-out: dTm 11): 0.2 °C | ΔTm at 10 µM (STLK3; read-out: dTm 11): 0.3 °C | ΔTm at 10 µM (AKT3; read-out: dTm 11): -0.1 °C | ΔTm at 10 µM (ULK3; read-out: dTm 11): 1.3 °C | ΔTm at 10 µM (CaMK2b; read-out: dTm 11): 0.3 °C | ΔTm at 10 µM (MELK; read-out: dTm 11): 4.2 °C
SMILES: CNc1ncc2cc(-c3cc(Br)ccc3Br)c(=O)n(CCCCN)c2n1 [compound 11, 8-(4-Aminobutyl)-6-(2,5-dibromophenyl)-2-(methylamino)pyrido[2,3-d]pyrimidin-7(8H)-one]

ΔTm at 10 µM (EphB1; read-out: dTm 12): 3.5 °C | ΔTm at 10 µM (BIKE; read-out: dTm 12): 2.2 °C | ΔTm at 10 µM (TTK; read-out: dTm 12): -0.7 °C | ΔTm at 10 µM (STLK3; read-out: dTm 12): 12.1 °C | ΔTm at 10 µM (AKT3; read-out: dTm 12): 1.2 °C | ΔTm at 10 µM (ULK3; read-out: dTm 12): 6.7 °C | ΔTm at 10 µM (CaMK2b; read-out: dTm 12): -0.4 °C | ΔTm at 10 µM (MELK; read-out: dTm 12): 6.1 °C
SMILES: CNc1ncc2cc(-c3cc(F)c(-c4cccc(C)n4)cc3F)c(=O)n(CCCCN)c2n1 [compound 12, 8-(4-Aminobutyl)-6-(2,5-difluoro-4-(6-methylpyridin-2-yl)phenyl)-2-(methylamino)pyrido[2,3-d]pyrimidin-7(8H)-one]
